Experimental data published in patent US8546433B2, “Axl inhibitors for use in combination therapy for preventing, treating or managing metastatic cancer” (Rigel Pharmaceuticals, Inc., priority 2009, dated 2013).

Experiments:
[1] = tested on: 4T1 tumor cells; experiment: Mouse 4T1 breast tumor model: Compound A in preventing lung and liver metastasis of a primary breast tumor (Biological Example 1); assay type: in vivo, BALB/c mice; details: 21 days; for effect on the number of large lung metastases, difference to vehicle: FIG. 3; for effect on the incidence of liver micrometastases, difference to Cisplatin at 1.2 mg/kg / effect on the incidence of liver micrometastases, difference to vehicle: FIG. 4; for effect on the number of medium lung metastases, difference to vehicle: FIG. 2
Experimental: Protocol Eighty-eight BALB/c mice were inoculated with 5×10^5 4T1 tumor cells (ATCC) orthotoically into the third mammary fat pad. On Day 0 of the study (2 days post-inoculation), 80 mice were randomized into 8 groups (10 mice per group). Dose administration began on Day 0 and continued for 21 days (3 weeks). Compound A was administered twice a day, Cisplatin was administered once a week, and Zometa was administered three times weekly. Tumor measurements were performed three times per week, starting when tumors were palpable (approximately 3×3 mm). Body weight measurements were taken three times per week at the same time each day. Tumor and body weight measurements fall all mice were measured prior to dose administration. On Day 21 of the treatment, mice were euthanized and the lungs exposed and the numbers of surface lung metastases were counted. The size of each metastasis was measured using a caliper in one dimenstion and categorized as follows: Small: Less than 2 mm Medium: Greater or equal to 2 mm Large: Greater or equal to 3 mm The lungs and livers from all mice were excised and placed in PLP fixative and stained for micrometastasis quantification.

[2] = tested on: 4T1 tumor cells; experiment: Mouse 4T1 breast tumor model: Compound A in combination with Cisplatin in preventing lung and liver metastasis (Biological Example 2); assay type: in vivo, BALB/c mice; details: 21 days, FIG. 7
Experimental: Using a variation of the mouse 4T1 breast tumor model, as described in Current Protocols in Immunology (2000), 20.2.1-20.2.16, Compound A in combination with Cisplatin was assayed to determine the efficacy of the combination therapy to prevent, treat or manage metastatic cancer in BALB/c mice.
• Vehicle: 0.5% HPMC/0.1% Tween. • Compound A: Preformulated dosing solutions in vehicle for 7 mg/kg and 21 mg/kg for oral administration. • Cisplatin: Diluted in sterile saline for 1.2 mg/kg (suboptimal clinical formulation) for intravenous administration. Protocol
Sixty-six BALB/c mice were inoculated with 5×10^5 4T1 tumor cells (ATCC) orthotoically into the third mammary fat pad. On Day 0 of the study (2 days post-inoculation), 60 mice were randomized into 6 groups (10 mice per group). Dose administration began on Day 0 and continued for 21 days (3 weeks). Compound A was administered twice a day, Cisplatin was administered once a week, and Zometa was administered three times weekly. Tumor measurements were performed three times per week, starting when tumors were palpable (approximately 3×3 mm). Body weight measurements were taken three times per week at the same time each day. Tumor and body weight measurements fall all mice were measured prior to dose administration.
On Day 21 of the treatment, mice were euthanized and the lungs exposed and the number of surface lung metastases were counted. The size of each metastasis was measured using a caliper in one dimenstion and categorized as follows:
Medium: Greater or equal to 2 mm
Large: Greater or equal to 3 mm
The lungs and livers from all mice were excised and placed in PLP fixative and stained for micrometastasis quantification.

[3] = Cisplatin 1.2 mg/kg intravenous once a week, p<0.05, Mann-Whitney Test
[4] = Cisplatin 2.4 mg/kg intravenous once a week, p<0.05, Mann-Whitney Test
[5] = Compound A 25 mg/kg oral twice a day, p<0.05, Mann-Whitney Test
[6] = Compound A 45 mg/kg oral twice a day, p<0.05, Mann-Whitney Test

N.N.[Cl][Pt][Cl] [Cisplatin, cis-diamminedichloridoplatinum(II), reference compound]
significant: effect on the number of large lung metastases, difference to vehicle [1, 3] | effect on the number of large lung metastases, difference to vehicle [1, 4] | effect on the incidence of liver micrometastases, difference to Cisplatin at 1.2 mg/kg [1, 4] | effect on the incidence of liver micrometastases, difference to Cisplatin at 1.2 mg/kg ([1]; Cisplatin 4 mg/kg intravenous once a week, p<0.05, Mann-Whitney Test) | effect on the number of medium lung metastases, difference to vehicle ([1]; cisplatin 4 mg/kg intravenous once a week, p<0.001, Mann-Whitney Test) | effect on reducing the number of large lung metastases, difference to vehicle [2, 3]

Nc1nc(Nc2ccc3c(c2)CC[C@@H](N2CCCC2)CC3)nn1-c1cc2c(nn1)-c1ccccc1CCC2 [Compound A, 1-(6,7-dihydro-5H-benzo[6,7]cyclohepta[1,2-c]pyridazin-3-yl)-N^3-((7-(S)-pyrrolidin-1-yl)-6,7,8,9-tetrahydro-5H-benzo[7]annulene-2-yl)-1H-1,2,4-triazole-3,5-diamine]
significant: effect on the number of large lung metastases, difference to vehicle [1, 5] | effect on the incidence of liver micrometastases, difference to vehicle [1, 5] | effect on the number of medium lung metastases, difference to vehicle [1, 6] | effect on the incidence of liver micrometastases, difference to vehicle [1, 6] | effect on the incidence of liver micrometastases, difference to vehicle ([1]; Compound A 75 mg/kg oral twice a day, p<0.05, Mann-Whitney Test) | effect on reducing the number of large lung metastases, difference to vehicle ([2]; Compound A 7 mg/kg oral twice a day, p<0.01, Mann-Whitney Test) | effect on reducing the number of large lung metastases, difference to vehicle ([2]; Compound A 21 mg/kg oral twice a day, p<0.01, Mann-Whitney Test)

O=P(O)(O)C(O)(Cn1ccnc1)P(=O)(O)O [Zometa, reference compound]
significant: effect on the incidence of liver micrometastases, difference to vehicle ([1]; Zometa 0.1 mg/kg subcutaneous three times weekly, p<0.05, Mann-Whitney Test)
